Reference: US20070289889A1, “Biomarkers For The Prediction Of Drug-In Duced Diarrhea” (NOVARTIS AG, priority 2003, published 2007)
“And” between values parts separate entries of the source, which are not always exact repeats. Equal entries are not always repeated.

Tests used:
white blood cells [1] = assay: mRNA expression profiling (Affymetrix U95A) of white blood cells, baseline vs. treated; assay type: in vivo, human
Protocol: (§1) Samples. Forty-three out of the ninety-one subjects who enrolled in the clinical trial consented to clinical pharmacogenetics analysis. For each subject, two clinical pharmacogenetics blood samples were scheduled: baseline and on Day 2 of Week 1 at hour 24. White blood cell (WBC) pellets were ficoll-hypaque separated from the whole blood by the investigator, frozen at −80° C. mRNA was extracted and profiled on the Affymetrix U95A GeneChip® platform.
(§2) mRNA expression profiling analysis. Any array with greater than 20% of genes called present by the Affymetrix MAS5 algorithm was a candidate for the analyses described herein. Affymetrix, “New statistical algorithms for monitoring gene expression on GeneChip® probe arrays.” Affymetrix Technical Notes. (2001). […] Forty-two out of the possible eighty-six arrays met the quality standards needed for analysis.
(§3) Statistical analysis. Fisher's Exact tests were performed to compare the demographics of the clinical pharmacogenetics participants to the overall trial population. An analysis of variance (ANOVA) was used to determine whether mRNA gene expression patterns correlated to either treatment status (baseline vs. treated), to experiencing diarrhoea (no diarrhoea vs. diarrhoea) or to whether specific blood cell type levels correlated to experiencing diarrhoea. All statistical analyses were performed using the SigmaStat 2.03 and SAS 8.02 programs.
Analysis of baseline vs. treated mRNA profiles by treatment group. To determine if gene expression in white blood cells was altered by epothilone B at 24 hours after treatment, a comparison between baseline and treated expression profiles was performed.

white blood cells [2] = assay: mRNA expression profiles of white blood cells after treatment, no diarrhoea vs. diarrhoea subjects; assay type: in vivo, human; settings: treated; for Signal Value 297_g_at (Tubulin, beta) / Signal Value 477_at (IRF5) / Signal Value 1274_s_at (CDC34) / Signal Value 33336_at (SLC4A1) / Signal Value 33759_at (BPGM) / Signal Value 37285_at (ALAS2) / Signal Value 37405_at (SELENBP1) / Signal Value 39436_at (BNIP3L): average of arrays
Protocol: as §1, §2, §3
Because there were only three subjects who experienced grade 3 diarrhoea, all fifteen subjects who experienced any grade of diarrhoea were grouped together to strengthen the statistical power of this analysis.
A comparison of the mRNA expression profiles of white blood cells identified eight genes with statistically significant differences between the two groups of subjects 24 hours after epothilone B administration. See, TABLE 3.
Compare, TABLE 8 and TABLE 13.

[3] = 3.6 mg/m^2, 24 hours after treatment
[4] = 24 hours, any grade of diarrhoea

Structure (SMILES): C/C(=C\c1csc(C)n1)[C@@H]1C[C@@H]2O[C@]2(C)CCC[C@H](C)[C@H](O)[C@@H](C)C(=O)C(C)(C)[C@@H](O)CC(=O)O1 [epothilone B, Epothilone B]
- Fold Change [treated/baseline] DAPK1 (40049_at) mRNA (white blood cells [1]; [3]): 2.1
- Fold Change [treated/baseline] DR1 (32621_at) mRNA (white blood cells [1]; [3]): 1.9
- Fold Change [treated/baseline] JAK1 (1457_at) mRNA (white blood cells [1]; [3]): 1.7
- Fold Change [treated/baseline] K-ALPHA-1 (32272_at) mRNA (white blood cells [1]; [3]): 1.7
- Fold Change [treated/baseline] MAP4K2 (187_at) mRNA (white blood cells [1]; [3]): −1.7
- Fold Change [treated/baseline] RAP1A (1848_at) mRNA (white blood cells [1]; [3]): 1.9
- Fold Change [treated/baseline] SURF2 (38210_at) mRNA (white blood cells [1]; [3]): 2.4
- Fold Change [treated/baseline] TCFL4 (32578_at) mRNA (white blood cells [1]; [3]): −1.6
- Fold Change [treated/baseline] TM9SF1 (38835_at) mRNA (white blood cells [1]; [3]): 2.2
- Fold Change [treated/baseline] ZFP36 (40448_at) mRNA (white blood cells [1]; [3]): 1.6
- Fold Change [treated/baseline] nuclear transcription factor Y, alpha (33297_at) mRNA (white blood cells [1]; [3]): −1.6
- number of genes with statistically significant changes in expression, treated vs. baseline (white blood cells [1]; 3.6 mg/m^2 treatment, 24 hours): eleven
- genes with statistically significant expression differences, treated vs. baseline (white blood cells [1]; 2.5 and 3.0 mg/m^2 treatments, 24 hours): No genes with statistically significant differences were identified
- genes with statistically significant expression differences, treated vs. baseline (white blood cells [1]; all treated samples combined, 24 hours after treatment): no genes with statistically significant differences were identified
- Fold Change [diarrhoea/no diarrhoea] ALAS2 (37285_at) mRNA (white blood cells [2]; [4]): −9.6
- Fold Change [diarrhoea/no diarrhoea] BNIP3L (39436_at) mRNA (white blood cells [2]; [4]): −2.8
- Fold Change [diarrhoea/no diarrhoea] BPGM (33759_at) mRNA (white blood cells [2]; [4]): −4.9
- Fold Change [diarrhoea/no diarrhoea] CDC34 (1274_s_at) mRNA (white blood cells [2]; [4]): −2.2
- Fold Change [diarrhoea/no diarrhoea] IRF5 (477_at) mRNA (white blood cells [2]; [4]): 2.9
- Fold Change [diarrhoea/no diarrhoea] SELENBP1 (37405_at) mRNA (white blood cells [2]; [4]): −11.3
- Fold Change [diarrhoea/no diarrhoea] SLC4A1 (33336_at) mRNA (white blood cells [2]; [4]): −15.3
- Fold Change [diarrhoea/no diarrhoea] Tubulin, beta (297_g_at) mRNA (white blood cells [2]; [4]): −3.9
- Signal Value 297_g_at (Tubulin, beta) (white blood cells [2]; Diarrhoea (any grade) subjects): 59
- Signal Value 477_at (IRF5) (white blood cells [2]; Diarrhoea (any grade) subjects): 278
- Signal Value 1274_s_at (CDC34) (white blood cells [2]; Diarrhoea (any grade) subjects): 128
- Signal Value 33336_at (SLC4A1) (white blood cells [2]; Diarrhoea (any grade) subjects): 93
- Signal Value 33759_at (BPGM) (white blood cells [2]; Diarrhoea (any grade) subjects): 70
- Signal Value 37285_at (ALAS2) (white blood cells [2]; Diarrhoea (any grade) subjects): 448
- Signal Value 37405_at (SELENBP1) (white blood cells [2]; Diarrhoea (any grade) subjects): 106
- Signal Value 39436_at (BNIP3L) (white blood cells [2]; Diarrhoea (any grade) subjects): 1476
- Signal Value 297_g_at (Tubulin, beta) (white blood cells [2]; No Diarrhoea subjects): 232
- Signal Value 477_at (IRF5) (white blood cells [2]; No Diarrhoea subjects): 97
- Signal Value 1274_s_at (CDC34) (white blood cells [2]; No Diarrhoea subjects): 278
- Signal Value 33336_at (SLC4A1) (white blood cells [2]; No Diarrhoea subjects): 1421 and 1422
- Signal Value 33759_at (BPGM) (white blood cells [2]; No Diarrhoea subjects): 344
- Signal Value 37285_at (ALAS2) (white blood cells [2]; No Diarrhoea subjects): 4292
- Signal Value 37405_at (SELENBP1) (white blood cells [2]; No Diarrhoea subjects): 1200
- Signal Value 39436_at (BNIP3L) (white blood cells [2]; No Diarrhoea subjects): 4200
- Fold Change [diarrhoea/no diarrhoea] 297_g_at (Tubulin, beta) (white blood cells [2]; grade 3 diarrhoea): −3.0
- Fold Change [diarrhoea/no diarrhoea] 477_at (IRF5) (white blood cells [2]; grade 3 diarrhoea): ^f2.7
- Fold Change [diarrhoea/no diarrhoea] 1274_s_at (CDC34) (white blood cells [2]; grade 3 diarrhoea): −2.3
- Fold Change [diarrhoea/no diarrhoea] 33336_at (SLC4A1) (white blood cells [2]; grade 3 diarrhoea): −15.9
- Fold Change [diarrhoea/no diarrhoea] 33759_at (BPGM) (white blood cells [2]; grade 3 diarrhoea): ^f−6.7
- Fold Change [diarrhoea/no diarrhoea] 37285_at (ALAS2) (white blood cells [2]; grade 3 diarrhoea): −10.0
- Fold Change [diarrhoea/no diarrhoea] 37405_at (SELENBP1) (white blood cells [2]; grade 3 diarrhoea): ^f−10.3
- Fold Change [diarrhoea/no diarrhoea] 39436_at (BNIP3L) (white blood cells [2]; grade 3 diarrhoea): −2.8
- Signal Value 297_g_at (Tubulin, beta) (white blood cells [2]; grade 3 diarrhoea subjects): 77
- Signal Value 477_at (IRF5) (white blood cells [2]; grade 3 diarrhoea subjects): 264
- Signal Value 1274_s_at (CDC34) (white blood cells [2]; grade 3 diarrhoea subjects): 123
- Signal Value 33336_at (SLC4A1) (white blood cells [2]; grade 3 diarrhoea subjects): 90
- Signal Value 33759_at (BPGM) (white blood cells [2]; grade 3 diarrhoea subjects): 51
